Experimental data published in US20210101881A1 (Ancureall Pharmaceutical (Shanghai) Co., Ltd., priority 2018, published 2021).
pIC50: −log10 of the molar value.

These compounds were tested on MOLM13 cells (assay: Growth inhibition of CDK9-positive cell line MOLM13 in vitro (CCK8/MTT assay)). Details: Homo sapiens, MOLM-13; MOLM13 cells, cultured 3 to 6 days, CCK8; read-out: IC50 of the compound for inhibiting cell growth, MOLM13 cells.
Format: cell-based, human
Method: 1. MOLM13 cell line and cell culture MOLM13 is a CDK9-positive human acute myeloid leukemia cell line from DMSZ. Suspension culture was carried out in RPMI1640 (Gibco) medium with 10% fetal bovine serum (Gibco), 1% penicillin-streptomycin and 2 mM glutamine.
Suspended MOLM-13 cells in logarithmic growth phase were collected by centrifugation (1700 rpm, 3 minutes), the supernatant was discarded, and the cells were counted. A solution with a cell concentration of 2×10^5 cells per milliliter was formulated and inoculated in a 96-well plate (Corning) with 100 microliters per well. The plate was incubated at 37° C., 5% CO2 overnight. On the next day, the test compound was added to the cultured cells in two parallel wells. […]
The present compound and the control compounds were respectively dissolved in DMSO (Sigma).
When the solvent control well became dark yellow, the OD450 nm absorption value was measured, and the cell growth rate was calculated according to the following formula. Cell growth rate %=100*(T−T0)/(C−T0), wherein T=the optical density value of the drug-treated well—the optical density value of the blank control well, T0=the optical density value of the well before drug treatment—the optical density value of the blank control well, C=the optical density value of the solvent control well—the optical density value of the blank control well. […] The assay was repeated three times, and the data was subjected to a biological statistical analysis.

Row | Structure (SMILES) | pIC50
1 | COc1cc(F)ccc1-c1cc(Nc2cc(CS(C)(=N)=O)ccn2)ncc1F (stereo not shown) [BAY1251125, reference compound] | 7.00 to 8.00
2 | NC(=O)c1cn(-c2ccnc(Nc3ccc(F)c(Br)c3)n2)c2ccccc12 [Compound 1, 1-[2-(3-bromo-4-fluoro-phenylamino)-pyrimidin-4-yl]-1H-indole-3-carboxamide] | < 6.00
3 | NC(=O)c1cn(-c2ccnc(Nc3ccc(C(F)(F)F)c(Cl)c3)n2)c2ccccc12 [Compound 2, 1-[2-(3-chloro-4-trifluoromethyl-phenylamino)-pyrimidin-4-yl]-1H-indole-3-carboxamide] | < 6.00
4 | NC(=O)c1cn(-c2ccnc(Nc3cccc(F)c3Cl)n2)c2ccccc12 [Compound 3, 1-[2-(2-chloro-3-fluoro-phenylamino)-pyrimidin-4-yl]-1H-indole-3-carboxamide] | < 6.00
5 | NC(=O)c1cn(-c2ccnc(Nc3cc(F)cc(C(F)(F)F)c3)n2)c2ccccc12 [Compound 4, 1-[2-(3-fluoro-5-trifluoromethyl-phenylamino)-pyrimidin-4-yl]-1H-indole-3-carboxamide] | < 6.00
6 | COc1ccc(Nc2nccc(-n3cc(C(N)=O)c4ccccc43)n2)cc1OC [Compound 5, 1-[2-(3,4-methoxy-phenylamino)-pyrimidin-4-yl]-1H-indole-3-carboxamide] | < 6.00
7 | NC(=O)c1cn(-c2ccnc(Nc3ccc(F)c([N+](=O)[O-])c3)n2)c2ccccc12 [Compound 6, 1-[2-(4-fluoro-3-nitro-phenylamino)-pyrimidin-4-yl]-1H-indole-3-carboxamide] | < 6.00
8 | COc1cc(F)c([N+](=O)[O-])cc1Nc1nccc(-n2cc(C(N)=O)c3ccccc32)n1 [Compound 7, 1-[2-(4-fluoro-2-methoxy-5-nitro-phenylamino)-pyrimidin-4-yl]-1H-indole-3-carboxamide] | 7.00 to 8.00
9 | CN(C)CCNc1ccc(Nc2nccc(-n3cc(C(N)=O)c4ccccc43)n2)cc1 [Compound 8, 1-{2-[4-(2-dimethylamino-ethylamino)-phenylamino]-pyrimidin-4-yl}-1H-indole-3-carboxamide] | 7.00 to 8.00
10 | NC(=O)c1cn(-c2ccnc(Nc3ccc(NCCN4CCOCC4)cc3)n2)c2ccccc12 [Compound 9, 1-{2-[4-(2-morpholin-4-yl-ethylamino)-phenylamino]-pyrimidin-4-yl}-1H-indole-3-carboxamide] | 7.00 to 8.00
11 | NC(=O)c1cn(-c2ccnc(Nc3ccc(NCCN4CCCCC4)cc3)n2)c2ccccc12 [Compound 10, 1-{2-[4-(2-piperidin-1-yl-ethylamino)-phenylamino]-pyrimidin-4-yl}-1H-indole-3-carboxamide] | 7.00 to 8.00
12 | CN1CCN(CCNc2ccc(Nc3nccc(-n4cc(C(N)=O)c5ccccc54)n3)cc2)CC1 [Compound 11, 1-(2-{4-[2-(4-methyl-piperazin-1-yl)-ethylamino]-phenylamino}-pyrimidin-4-yl)-1H-indole-3-carboxamide] | 7.00 to 8.00
13 | NC(=O)c1cn(-c2ccnc(Nc3ccc(NC4CCNCC4)cc3)n2)c2ccccc12 [Compound 12, 1-{2-[4-(piperidin-4-amino)-phenylamino]-pyrimidin-4-yl}-1H-indole-3-carboxamide] | 7.00 to 8.00
14 | NC(=O)c1cn(-c2ccnc(Nc3ccc(NCCN4CCCC4)cc3)n2)c2ccccc12 [Compound 13, 1-{2-[4-(2-pyrrolidin-1-yl-ethylamino)-phenylamino]-pyrimidin-4-yl}-1H-indole-3-carboxamide] | 7.00 to 8.00
15 | NC(=O)c1cn(-c2ccnc(Nc3ccc(CN4CCOCC4)cc3)n2)c2ccccc12 [Compound 14, 1-[2-(4-morpholin-4-methyl-phenylamino)-pyrimidin-4-yl]-1H-indole-3-carboxamide] | 7.00 to 8.00
16 | CC(=O)N1CCN(Cc2ccc(Nc3nccc(-n4cc(C(N)=O)c5ccccc54)n3)cc2)CC1 [Compound 15, 1-{2-[4-(4-acetyl-piperazin-1-methyl)-phenylamino]-pyrimidin-4-yl}-1H-indole-3-carboxamide] | 7.00 to 8.00
